Measured values published in US6096734A, “Photosensitizers for sensitizing cells” (The Secretary of State for Defence in Her Britannic …, priority 1993, dated 2000).
Where two headings read alike, the source gives them in different places.

Assays:
[1] = Singlet oxygen generation (luminescence at 1270 nm); format: physicochemical
Experimental: (§1) Triplet state studies were carried out using laser flash photolysis. Samples were prepared in a 1% pyridine in toluene solution; by preparing such a solution then it is believed that aggregation of the phthalocyanine cores is avoided. The solution was prepared so that an optical density of 0.2-0.3 at the excitation wavelength was obtained. Samples were irradiated by an excimer pumped dye laser at 355 nm and the transients monitored with the use of a quartz halogen lamp. Triplet quantum yields were calculated using ZnTPP and ZnPc as standards. The triplet quantum yield is the quantum yield of conversion from the excited singlet state to the triplet state.
The generation of singlet oxygen by the phthalocyanines was also studied. The method of detection of the singlet oxygen involved measuring the intensity of luminescence at 1270 nm, corresponding to the forbidden transition from the excited singlet back down to the ground state, with a liquid nitrogen cooled germanium detector. Aerated samples were irradiated with the same system as described for the triplet state studies. Standards used were ZnTPP, ZnPc and anthracene.
The data in Table 3 are means of no less than four independent runs, except for compounds 8 and 9 were run once.
The properties of the decomposition products arising from irradiation of the phthalocyanines were investigated.

[2] = Triplet state studies by laser flash photolysis; format: physicochemical; conditions: 1% pyridine in toluene, excitation 355 nm; for Triplet Quantum Yield: means of no less than four runs, compounds 8 and 9 run once
Experimental: as §1
Compound example 10 is unsubstituted zinc phthalocyanine (ZnPc); this is included in the Table for means of comparison.
The data in Table 2 are means of no less than four independent runs, except for compounds 8 and 9 which were run once.

[3] = ethanolic solution; Valduga et al 1988; cited from earlier work
[4] = Spectroscopic properties of ZnODPc (absorption, fluorescence); format: physicochemical
Experimental: The fluorescence emission maximum, excited at 703 nm is at 712 nm.
(§2) In this investigation female Balb/c mice 20-22 g bearing a MS-2 fibrosarcoma intramuscularly implanted into the hind right leg were used as an animal model. On the 7th day after transplantation when the tumour diameter was 0.6-0.8 cm and no spontaneous necrosis could be detected, the mice were injected with 1.2 or 2.4 mg/kg ZnODPc incorporated into Cremophor emulsions. The preparation and characterisation of such emulsions has been described by L. Polo et al Cancer Lett. 66: 217-223, 1992. The amount of injected ZnODPc was estimated by diluting a known aliquot of the phthalocyanine-containing emulsion into THF and reading the absorbance at 701 nm (molar absorption coefficient 2.01×10^5 dm^3 mol^-1 cm^-1).

[5] = parameters: species or system female Balb/c mice; conditions: mouse, in vivo
Experimental: In this investigation female Balb/c mice 20-22 g bearing a MS-2 fibrosarcoma intramuscularly implanted into the hind right leg were used as an animal model. On the 7th day after transplantation when the tumour diameter was 0.6-0.8 cm and no spontaneous necrosis could be detected, the mice were injected with 1.2 or 2.4 mg/kg ZnODPc incorporated into Cremophor emulsions. The preparation and characterisation of such emulsions has been described by L. Polo et al Cancer Lett. 66: 217-223, 1992. The amount of injected ZnODPc was estimated by diluting a known aliquot of the phthalocyanine-containing emulsion into THF and reading the absorbance at 701 nm (molar absorption coefficient 2.01×10^5 dm^3 mol^-1 cm^-1). The tumour-bearing mice were injected with 1.2 mg/kg ZnODPc in the tail vein. At 3 hours and 24 hours after administration, groups of three mice were sacrificed by prolonged exposure to ether vapours, the tumour and selected normal tissues (muscle, skin, liver and kidneys) were excised, washed with phosphate buffered saline (PBS) and assayed for the phthalocyanine content by spectrofluorimetric analysis after chemical extraction, see Reddi et al Br. J. Cancer 61: 407-411, 1990; typically a weighted amount of tissue was homogenized in 3 ml of 2% aqueous sodium dodecyl sulphate (SDS); the homegenate was incubated for 1 hour at room temperature under gentle magnetic stirring and 1 ml of the suspension was added with 2 ml of THF, centrifuged at 10 mins at 3000 rpm; the supernatant was collected and its fluorescence intensity was determined in the 670-770 nm interval (excitation at 650 nm). The fluorescence intensity was converted into ZnODPc concentration by interpolation with a calibration plot. Samples of blood were taken from the sacrificed animals, centrifuged to separate the erythocytes and the serum (50 μl) thus collected was diluted with 2% aqueous SDS (700 μl), added with 1.5 ml of THF and centrifuged for 10 mins at 3000 rpm. The ZnODPc concentration in the supernatant was determined by fluorescence spectroscopy as specified above. Special attention was focussed on the phthalocyanine content in the muscle which is the peritumoural tissue in the animal model exemplified in this study and the skin because of the frequent onset of persistent cutaneous photosensitivity in PDT patients. The determination of ZnODPc accumulation in liver and kidneys can provide useful information on the modality of its elimination from the organism. Analyses were carried out at 3 h intervals after photosensitizer injection and at 24 h which is generally considered to be the usual time interval for PDT treatment.

MS-2 fibrosarcoma = assay: Phototherapeutic studies: tumour response to PDT (visual observation, electron microscopy); format: in vivo, female Balb/c mice
Experimental: as §2
The tumour bearing mice were injected with 2.4 mg/kg ZnODPc and after 24 h were irradiated by 600-700 nm light which was isolated from the emission of a quartz-halogen lamp (Teclas, Lugano Switzerland) by optical filtering. The light beam was focussed into a bundle of optical fibres, whose tip was positioned at a 1 cm distance from the tumour surface. The lamp was operated at 230 mW/cm^2 for a total delivered light dose of 400 J/cm^2.
The tumour response was analyzed by visual observation, as well as by electron microscopy studies on tumour specimens taken at 6 h and 24 h after the end of the PDT. The procedure for the preparation of the samples and ultra structural determinations was performed as described by Milanesi et al. Br. J. Cancer 61: 846-850, 1990.
At the same time endocytoplasmic vacuolisation 6 is frequently observed with some completely necrotic cells and loss of the organised tissue structure.

[6] = Table 3, aerated samples, same system as triplet studies (1% pyridine in toluene), means of no less than four runs, compounds 8 and 9 run once
[7] = irradiation conditions described, in words

SMILES: CCCCCCCCCCc1ccc(CCCCCCCCCC)c2c1C1=NC2=Nc2c3c(CCCCCCCCCC)ccc(CCCCCCCCCC)c3c3[n]2[Zn][n]2c(c4c(CCCCCCCCCO)ccc(CCCCCCCCCO)c4c2=NC2=NC(=N3)c3c(CCCCCCCCCC)ccc(CCCCCCCCCC)c32)=N1 [Example 9, 1,4-Bis (9-Hydroxynonyl)-8,11,15,18,22,25-Hexadecylphthalocyaninato-Zinc]
- Singlet Oxygen Quantum Yield [1, 6]: 0.80
- Triplet Quantum Yield [2]: 0.70

SMILES: [Zn+2].c1ccc2c(c1)-c1nc-2nc2[n-]c(nc3nc([n-]c4nc(n1)-c1ccccc1-4)-c1ccccc1-3)c1ccccc21 [Example 10, unsubstituted zinc phthalocyanine, reference compound]
- Singlet Oxygen Quantum Yield [1, 6]: 0.50
- Triplet Quantum Yield [2]: 0.45
- Singlet Oxygen Quantum Yield [3]: approximately 0.4

SMILES: CCCCCCCCCCc1ccc(CCCCCCCCCC)c2c1C1=NC2=Nc2c3c(CCCCCCCCCC)ccc(CCCCCCCCCC)c3c3[n]2[Zn][n]2c(c4c(CCCCCCCCCC)ccc(CCCCCCCCCC)c4c2=NC2=NC(=N3)c3c(CCCCCCCCCC)ccc(CCCCCCCCCC)c32)=N1 [Example 1, 1,4,8,11,15,18,22,25-octakis-decylphthalocyaninato-zinc]
- molar absorption coefficient ([4]; THF, 701 nm): 2.01×10^5 dm^3 mol^-1 cm^-1
- absorption maximum ([4]; cyclohexane): 703 nm
- molar absorption coefficient (ε) at the absorption maximum ([4]; cyclohexane, 703 nm): approximately 2.3×10^5 dm^3 mol^-1 cm^-1
- fluorescence emission maximum ([4]; cyclohexane, excited at 703 nm): 712 nm
- Singlet Oxygen Quantum Yield [1, 6]: 0.73
- Singlet Oxygen Quantum Yield ([1]; toluene/pyridine solution): 0.73±0.06
- Triplet Lifetime [2]: 50 μs
- Triplet Quantum Yield [2]: 0.67
- accumulation in kidneys [5]: negligible amounts
- liver concentrations [5]: comparatively low
- presence in cutaneous districts (skin) [5]: essentially no phthalocyanine is present
- recovery from the peritumoural tissue [5]: No detectable amount
- Recovery, Kidney ([5]; iv, 1.2 mg/kg, 3 h): 0.066 ± 0.008 μg of dye/g of tissue
- Recovery, Liver ([5]; iv, 1.2 mg/kg, 3 h): 0.278 ± 0.053 μg of dye/g of tissue
- Recovery, Serum ([5]; iv, 1.2 mg/kg, 3 h): 0.436 ± 0.324
- Recovery, Tumour ([5]; iv, 1.2 mg/kg, 3 h): 0.073 μg of dye/g of tissue
- Recovery, Kidney ([5]; iv, 1.2 mg/kg, 24 h): 0.O05 ± 0.002 μg of dye/g of tissue
- Recovery, Liver ([5]; iv, 1.2 mg/kg, 24 h): 0.673 ± 0.140 μg of dye/g of tissue
- Recovery, Serum ([5]; iv, 1.2 mg/kg, 24 h): 0.042 ± 0.015
- Recovery, Skin ([5]; iv, 1.2 mg/kg, 24 h): 0.008 ± 0.001 μg of dye/g of tissue
- Recovery, Tumour ([5]; iv, 1.2 mg/kg, 24 h): 0.132 ± 0.022 μg of dye/g of tissue
- tumour growth delay compared with untreated tumour-bearing mice (MS-2 fibrosarcoma; 2.4 mg/kg, irradiated 24 h post-injection, 600-700 nm, 400 J/cm^2): significant delay in tumour growth
- damage of blood vessels (electron microscopy) (MS-2 fibrosarcoma; 6 h after irradiation, FIG. 1): less heavily damaged
- damage of tumour cells (electron microscopy) (MS-2 fibrosarcoma; 6 h after irradiation, FIG. 1): extensive damage of tumour cells
- overall appearance of the tumour (MS-2 fibrosarcoma; 24 h after irradiation): deeply haemorrhagic
- tissular damage (electron microscopy) (MS-2 fibrosarcoma; 24 h after irradiation, FIG. 2): remarkably more extensive at 24 h after irradiation
- damage of cell nuclei (MS-2 fibrosarcoma; in words): extensive damage of cell nuclei
- tumour damage upon photoexcitation with red light (MS-2 fibrosarcoma; in words): sufficient for inducing an efficient tumour damage
- damage of blood capillaries (MS-2 fibrosarcoma; [7]): appreciable damage of blood capillaries
- main target of photosensitization (MS-2 fibrosarcoma; [7]): malignant cells appear to be the main target
